Assay results from patent US11166894B2, “Shampoo compositions comprising a chelant” (The Procter & Gamble Company, priority 2016, dated 2021).
“Also recorded” adds a separate entry of the source.

Tests used:
[1] = log P, n-octanol/water partition coefficient; format: physicochemical
Description: The term log P is the n-octanol/water partition coefficients of the material.
The copper to be removed is inside the hair and the chelant needs to penetrate inside hair and form a strong copper-chelant complex. This copper-chelant complex needs to be water soluble and thus easily removed during the rinsing process. […] These are log P, the octanol/water partitioning coefficient, and the molecular weight of the chelant. Both are related to the ability of the chelant to penetrate into hair and also form a water soluble copper-chelant complex

[2] = Copper on hair after repeat shampoo wash cycles (ICP-OES), versus shampoo without chelant; conditions: for reduces copper by: shampoo composition containing 0.1 wt % chelant, 20 cleaning cycles, compared to shampoo without the chelant; for reduction/removal of copper on hair compared to shampoo without chelant (in words): 10 shampoo cycles; for Copper Removing Performance from Shampoo: clarifying shampoo containing the chelant, 20 cycles, copper content of hair compared to shampoo without the chelant; for reduction/removal of copper on hair compared to control shampoo (in words): 20 shampoo cycles, clarifying shampoo
Method: The copper removing performance of the shampoo composition is determined by treating hair with clarifying shampoo containing the corresponding chelant for 20 cycles and comparing the copper content of the hair compared to the same treatment using shampoo without the chelant.
(§1) All testing are performed on colored hair switches (see Method of Measurement of Copper on Hair below) weighing approximately […] and having a length of approximately 6 inches. The hair switches are commercially available from IHIP (International Hair Importers). Three hair switches per sampoo composition are used. An amount of […] of shampoo is spread via a syringe onto separate hair switch. That is, the dosage is 0.10 g of shampoo per g of hair. Each application consists of adding shampoo to the hair, milking for 30 seconds followed by rinsing for 30 seconds. Shampoo is then reapplied (0.1 g/g), milked for 30 seconds and rinsed for 30 seconds. Excess water is squeezed from the hair switches and left to air dry or treated with a rinse-off conditioner and/or a leave-on treatment composition. This protocol is repeated for a number of times/cycles (as indicated in the tables below, which describe the details of hair treatments).
The following test method is used to assess the ability of the compositions and regimens to remove copper from the hair and to inhibit copper deposition onto the hair.
Hair switches are colored once with an oxidative hair colorant. An extra blonde shade is used for the testing. The hair switches are washed for 10 or 20 repeat wash cycles in tap water containing 7 grains per gallon water hardness (Ca/Mg) and 0.06 μg/g copper ions. Each wash cycle consists of two applications of 0.1 g/g a shampoo to the hair switches. Each application consists of adding shampoo to the hair, milking for 30 secs followed by rinsing for 30 secs. Shampoo is then reapplied 0.1 g/g, milked for 30 secs, rinsed for 30 secs and then dried in a heat box (60° C.) until dry.
Samples of 100 mg of hair are digested overnight with 2 ml of high purity concentrated nitric acid. The digestive mixture also contains 150 μL of 100 μg/g Yttrium internal standard (Inorganic Ventures, Christianburg, Va., USA). Following digestion, samples are heated to 70-80° C. for one hour, cooled to room temperature and diluted to 15 mL with deionized water. Copper content of the hair switches is determined by inductively coupled plasma atomic spectroscopy (ICP-OES)). For each leg, 3 different samples are analyzed.
In order to minimize the variability of the resulting copper content on hair that is related to (a) lot-to-lot viariability due to hair switches and (b) day-to-day variability of the water used during shampoo and conditioner treatments, a single lot of hair switches is used for each experimental series and a separate control experiment/treatment is run for each experimental series (see below).

[3] = log of formation constant of complex with copper; cited from earlier work
[4] = Copper on hair after regimen cycles of shampoo, rinse-off conditioner and leave-on treatment (ICP-OES); conditions: 20 conditioning shampoo/rinse-off conditioner/leave-on treatment regimen cycles
Method: as §1
The following test method is used to assess the ability of the compositions and regimens to remove copper from the hair and to inhibit copper deposition onto the hair. […]
Samples of 100 mg of hair are digested overnight with 2 ml of high purity concentrated nitric acid. […] Copper content of the hair switches is determined by inductively coupled plasma atomic spectroscopy (ICP-OES)). For each leg, 3 different samples are analyzed. […]

Structure (SMILES) | logP [1] | Log KML Cu [3] | Copper Removing Performance from Shampoo [2] | reduction/removal of copper on hair compared to control shampoo (in words) [2] | further results
CC(O)CN(CCN(CC(C)O)CC(C)O)CCN(CC(C)O)CC(C)O (stereo not shown) [Pentrol] | – | – | – | – | Log P [1]: −0.2
OCCN(CCO)CCN(CCO)CCN(CCO)CCN(CCO)CCN(CCO)CCO [Tetraethylenepentaamine-(1-EO)] | -2.9 | – | – | – | –
O=C(O)CNCC(=O)O [iminodiacetic acid] | – | – | – | – | reduces copper by [2]: 40%
NCCN(CCN)CCN [Tris(2-aminoethyl)amine] | -2.2 | 18.8 | 45% | – | reduction/removal of copper on hair compared to shampoo without chelant (in words) [2]: effective removal of copper from hair
CC(O)CN(CCN(CC(C)O)CC(C)O)CC(C)O (stereo not shown) [Ethylenedinitrilotetrapropan-2-ol] | – | 9.8 | 30% | effective removal of copper from hair | Log P [1]: −0.2
O=C(O)CN(CCO)CC(=O)O [N-(2-hydroxyethyl)iminodiacetic acid] | – | – | – | – | reduces copper by [2]: 30%

Second part, led by results:

logP [1] | Structure (SMILES) | Log KML Cu [3] | Copper Removing Performance from Shampoo [2] | reduction/removal of copper on hair compared to control shampoo (in words) [2] | further results
-2.3 | NCCNCCNCCN [2,3-Triethylenetetramine] | 20.1 | 70% | effective removal of copper from hair; also recorded: more effective treatements | removal of copper from hair compared to control regimen (in words) [4]: effective removal of copper from hair; reduction/removal of copper on hair compared to shampoo without chelant (in words) [2]: significant reduction of copper content on hair
-2.7 | NCCNCCNCCNCCN [2,4-Tetraethylenepentamine] | 22.8 | 60% | more effective treatements | –
-2.1 | NCCCNCCCNCCCN [1,5,9,13-Tetraazatridecane] | 17.1 | 15% | – | –
